Laboratory results published in ChEMBL document CHEMBL1201862, “PubChem BioAssay data set” (2004).
Active and inactive are the calls of the source.

Tests used:
[1] = M. tuberculosis H37Rv growth inhibitors, H37Rv strain (AID 1626); format: functional
[2] = inhibitors of Vif binding to APOBEC3G peptide, primary screen, biochemical, TR-FRET, GST-Vif 1-94, biotin-A3G peptide, dose response retest (AID 1117319); format: functional;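 also: TR-FRET signal of purified GST-Vif binding a biotinylated A3G peptide; inhibitors lower the FRET signal by blocking Vif and A3G binding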
[3] = target: T1, Carboxy-terminal domain RNA polymerase II polypeptide A small phosphatase 1 (Homo sapiens, UniProt Q9GZU7); test: inhibitors of CTDSP1, concentration-response testing, biochemical assay, absorbance-based, actives from ultra-high-throughput screening (AID 540297); format: functional
T1 sequence (Q9GZU7 whole entry): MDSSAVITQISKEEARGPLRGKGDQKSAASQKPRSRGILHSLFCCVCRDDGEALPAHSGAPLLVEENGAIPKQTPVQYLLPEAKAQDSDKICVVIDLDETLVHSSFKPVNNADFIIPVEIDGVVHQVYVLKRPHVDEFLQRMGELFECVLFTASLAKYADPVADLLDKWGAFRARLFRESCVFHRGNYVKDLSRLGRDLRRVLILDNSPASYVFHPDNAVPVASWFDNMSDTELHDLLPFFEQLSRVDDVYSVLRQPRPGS

[4] = target: T2, Estrogen receptor beta (Homo sapiens, UniProt Q92731); test: ERβ–SRC-3 coactivator interaction inhibitors, confirmation, orthogonal assay, biochemical, ELISA, streptavidin-HRP readout (AID 1060)
T2 sequence (Q92731 whole entry): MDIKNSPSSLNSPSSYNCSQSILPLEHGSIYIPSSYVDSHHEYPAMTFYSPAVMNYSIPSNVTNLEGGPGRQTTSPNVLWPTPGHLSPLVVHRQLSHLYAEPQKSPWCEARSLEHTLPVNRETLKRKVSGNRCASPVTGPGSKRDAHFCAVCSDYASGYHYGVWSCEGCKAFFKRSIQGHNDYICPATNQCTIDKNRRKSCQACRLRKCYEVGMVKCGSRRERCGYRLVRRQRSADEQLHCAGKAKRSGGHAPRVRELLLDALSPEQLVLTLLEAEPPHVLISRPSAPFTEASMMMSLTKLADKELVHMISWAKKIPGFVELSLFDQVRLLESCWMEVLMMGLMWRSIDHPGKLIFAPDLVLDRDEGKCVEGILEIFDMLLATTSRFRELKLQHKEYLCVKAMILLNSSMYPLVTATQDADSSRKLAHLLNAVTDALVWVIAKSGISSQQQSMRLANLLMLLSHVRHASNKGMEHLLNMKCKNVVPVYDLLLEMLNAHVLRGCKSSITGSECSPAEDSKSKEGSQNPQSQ

[5] = target: T2, Estrogen receptor beta
[6] = target: T3, High affinity choline transporter 1 (Homo sapiens, UniProt Q9GZV3); test: CHT inhibitors, dose response, cell-based, 5-point CRC, membrane potential dye (AID 504840); format: functional
T3 sequence (Q9GZV3 whole entry): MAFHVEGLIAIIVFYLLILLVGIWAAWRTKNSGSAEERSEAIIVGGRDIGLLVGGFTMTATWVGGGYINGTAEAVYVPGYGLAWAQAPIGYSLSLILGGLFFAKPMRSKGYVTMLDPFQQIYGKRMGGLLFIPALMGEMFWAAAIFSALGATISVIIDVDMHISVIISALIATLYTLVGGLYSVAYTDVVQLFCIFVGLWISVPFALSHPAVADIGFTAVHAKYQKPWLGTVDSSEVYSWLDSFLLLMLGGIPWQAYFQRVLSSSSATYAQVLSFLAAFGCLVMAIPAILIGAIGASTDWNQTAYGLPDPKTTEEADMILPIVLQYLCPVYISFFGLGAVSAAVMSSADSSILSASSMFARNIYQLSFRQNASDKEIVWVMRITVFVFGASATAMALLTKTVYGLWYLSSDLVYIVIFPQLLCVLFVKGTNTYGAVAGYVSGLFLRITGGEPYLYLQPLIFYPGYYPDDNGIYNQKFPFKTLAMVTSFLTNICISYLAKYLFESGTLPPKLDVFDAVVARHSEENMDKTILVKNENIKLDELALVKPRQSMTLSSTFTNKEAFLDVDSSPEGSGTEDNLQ

[7] = target: Aryl hydrocarbon receptor (Homo sapiens, UniProt P35869); test: Luminescence-based cell-based high throughput dose response assay for activators of the Aryl Hydrocarbon Receptor (AHR). [Related pubchem assays: 2796 (Primary screen (AHR activators in singlicate)), 2845 (Confirmation screen (AHR activators in triplicate)), 434939 (Counterscreen (PXR activators in triplicate)), 2804 (Summary (AHR activators))]; format: ADME
[8] = target: NADPH oxidase 1 (Homo sapiens, UniProt Q9Y5S8); format: functional, cell-based;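 also: Cell-based assay with luminescence read-out, IC50 derived from inhibitor dose-response curves; intracellular ROS from endogenous NOX1 in intact HT29 colon cancer cells; potency of inhibitors that lower the ROS luminescence signal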
NADPH oxidase 1, sequence (Q9Y5S8 whole entry): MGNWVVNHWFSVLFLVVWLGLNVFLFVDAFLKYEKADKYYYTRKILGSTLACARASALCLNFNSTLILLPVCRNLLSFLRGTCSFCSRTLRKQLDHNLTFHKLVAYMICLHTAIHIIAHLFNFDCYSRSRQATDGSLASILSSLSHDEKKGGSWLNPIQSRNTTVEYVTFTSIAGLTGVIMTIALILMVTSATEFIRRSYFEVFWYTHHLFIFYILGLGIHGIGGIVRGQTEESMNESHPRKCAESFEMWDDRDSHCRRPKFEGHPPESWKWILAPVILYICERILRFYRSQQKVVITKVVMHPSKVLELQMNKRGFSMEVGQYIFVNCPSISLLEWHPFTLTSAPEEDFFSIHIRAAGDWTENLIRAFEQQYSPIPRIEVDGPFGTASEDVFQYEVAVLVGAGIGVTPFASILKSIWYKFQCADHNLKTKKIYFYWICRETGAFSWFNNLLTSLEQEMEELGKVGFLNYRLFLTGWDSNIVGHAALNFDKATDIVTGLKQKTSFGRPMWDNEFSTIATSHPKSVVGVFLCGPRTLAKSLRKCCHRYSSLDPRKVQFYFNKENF

[9] = target: 5-hydroxytryptamine receptor 1A (Homo sapiens, UniProt P08908); format: functional
5-hydroxytryptamine receptor 1A, sequence (P08908 whole entry): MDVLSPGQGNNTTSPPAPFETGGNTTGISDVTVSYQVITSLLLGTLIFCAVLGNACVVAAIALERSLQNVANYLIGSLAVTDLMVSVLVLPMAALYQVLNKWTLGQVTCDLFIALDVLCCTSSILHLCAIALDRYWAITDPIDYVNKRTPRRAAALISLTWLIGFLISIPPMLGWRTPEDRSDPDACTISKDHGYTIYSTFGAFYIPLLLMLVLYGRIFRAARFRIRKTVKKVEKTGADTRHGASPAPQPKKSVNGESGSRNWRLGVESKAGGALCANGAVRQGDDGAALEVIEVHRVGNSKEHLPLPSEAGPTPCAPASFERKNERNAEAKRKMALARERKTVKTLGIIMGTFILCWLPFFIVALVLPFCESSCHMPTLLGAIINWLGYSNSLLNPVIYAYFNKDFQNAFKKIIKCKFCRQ

[10] = control 3'UTR Renilla luciferase suppression, dose response, counter-screen for Shn3 inhibitor project, cell-based, Clone20-Shn3RL, cherry-picked (AID 624133); format: functional
[11] = Shn3 3'UTR reporter inhibitors, dose response, cell-based, Clone20 osteoblasts, firefly luciferase, cherry-picked (AID 624132); format: functional;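 also: firefly luciferase luminescence from reporter carrying the Shn3 3'UTR in osteoblasts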
[12] = target: T4, Ubiquitin-conjugating enzyme E2 N (Homo sapiens, UniProt P61088); format: functional
T4 sequence (P61088 whole entry): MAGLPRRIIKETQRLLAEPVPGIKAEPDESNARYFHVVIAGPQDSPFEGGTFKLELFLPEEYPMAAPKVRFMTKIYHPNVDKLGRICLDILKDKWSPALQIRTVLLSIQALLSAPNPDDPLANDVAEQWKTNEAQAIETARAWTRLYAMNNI

[13] = target: T3, High affinity choline transporter 1; test: CHT inhibitors, dose response, cell-based, 10-point CRC, membrane potential dye (AID 588401); format: functional;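 also: membrane potential dye fluorescence of choline-evoked depolarization via CHT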
[14] = target: T4, Ubiquitin-conjugating enzyme E2 N; format: functional; remark: listed apart in the source
[15] = target: T5, Hepatocyte nuclear factor 4-alpha (Homo sapiens, UniProt P41235); format: functional, cell-based;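 also: biochemical luminescence-based dose-response counterscreen measuring inhibition of HNF4 dimerization, run alongside a screen for blockers of ABHD5–perilipin-5 interaction; split luciferase complementation of HNF4 fusion proteins in cell lysate measuring dimerization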
T5 sequence (P41235 whole entry): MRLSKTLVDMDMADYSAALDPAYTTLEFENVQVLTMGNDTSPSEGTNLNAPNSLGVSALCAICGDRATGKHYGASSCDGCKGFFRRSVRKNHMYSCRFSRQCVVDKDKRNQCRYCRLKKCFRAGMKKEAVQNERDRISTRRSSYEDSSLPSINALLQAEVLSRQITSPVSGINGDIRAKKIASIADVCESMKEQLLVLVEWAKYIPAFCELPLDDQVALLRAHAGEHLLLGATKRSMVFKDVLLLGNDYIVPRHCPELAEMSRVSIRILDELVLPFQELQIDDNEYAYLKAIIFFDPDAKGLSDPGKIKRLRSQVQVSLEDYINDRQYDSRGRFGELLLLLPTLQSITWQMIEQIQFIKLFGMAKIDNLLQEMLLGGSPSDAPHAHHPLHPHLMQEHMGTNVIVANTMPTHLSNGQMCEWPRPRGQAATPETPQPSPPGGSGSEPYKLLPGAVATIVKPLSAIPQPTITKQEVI

[16] = target: T6, Protein RecA (Mycobacterium tuberculosis, UniProt P9WHJ3); test: Fluorescence Cell-Free Homogeneous Dose Retest to Identify Inhibitors of RecA-Intein Splicing Activity. [Related pubchem assays (depositor defined):AID2097, AID2223, AID489010, AID492950]; format: functional
T6 sequence (P9WHJ3 whole entry): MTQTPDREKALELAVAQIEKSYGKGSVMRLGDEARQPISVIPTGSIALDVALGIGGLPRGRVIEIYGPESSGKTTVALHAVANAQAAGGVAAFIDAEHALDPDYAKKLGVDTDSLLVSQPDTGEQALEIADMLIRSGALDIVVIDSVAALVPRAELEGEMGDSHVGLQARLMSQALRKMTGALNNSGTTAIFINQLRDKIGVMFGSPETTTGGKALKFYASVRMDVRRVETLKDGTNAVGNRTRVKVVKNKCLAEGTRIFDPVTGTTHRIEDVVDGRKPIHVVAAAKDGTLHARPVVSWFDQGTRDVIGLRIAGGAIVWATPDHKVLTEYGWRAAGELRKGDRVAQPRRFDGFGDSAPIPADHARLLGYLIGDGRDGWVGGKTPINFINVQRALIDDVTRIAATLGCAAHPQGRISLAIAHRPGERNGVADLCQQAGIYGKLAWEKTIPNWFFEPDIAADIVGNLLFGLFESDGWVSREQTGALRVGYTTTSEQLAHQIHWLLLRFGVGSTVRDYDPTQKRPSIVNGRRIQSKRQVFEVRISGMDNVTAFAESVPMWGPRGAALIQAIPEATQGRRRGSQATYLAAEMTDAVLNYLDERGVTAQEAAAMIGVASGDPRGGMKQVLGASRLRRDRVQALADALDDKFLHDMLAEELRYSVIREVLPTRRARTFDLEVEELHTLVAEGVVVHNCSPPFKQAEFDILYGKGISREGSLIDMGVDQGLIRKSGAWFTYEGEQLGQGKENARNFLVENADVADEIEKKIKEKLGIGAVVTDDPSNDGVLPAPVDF

[17] = test system: Vero; test: Vero cell cytotoxicity, cytotoxicity control for flavivirus capping enzyme inhibitors (AID 588742); format: functional; details: Chlorocebus sabaeus
[18] = target: ATP-binding cassette sub-family B member 6 (Homo sapiens, UniProt Q9NP58); test: ABCB6 transporter inhibitors, porphyrin accumulation, dose response, flow cytometry, K562-ABCB6 cells, cherry pick 02 (AID 624487); format: functional; details: read-out: EC50_MICROM
ATP-binding cassette sub-family B member 6, sequence (Q9NP58 whole entry): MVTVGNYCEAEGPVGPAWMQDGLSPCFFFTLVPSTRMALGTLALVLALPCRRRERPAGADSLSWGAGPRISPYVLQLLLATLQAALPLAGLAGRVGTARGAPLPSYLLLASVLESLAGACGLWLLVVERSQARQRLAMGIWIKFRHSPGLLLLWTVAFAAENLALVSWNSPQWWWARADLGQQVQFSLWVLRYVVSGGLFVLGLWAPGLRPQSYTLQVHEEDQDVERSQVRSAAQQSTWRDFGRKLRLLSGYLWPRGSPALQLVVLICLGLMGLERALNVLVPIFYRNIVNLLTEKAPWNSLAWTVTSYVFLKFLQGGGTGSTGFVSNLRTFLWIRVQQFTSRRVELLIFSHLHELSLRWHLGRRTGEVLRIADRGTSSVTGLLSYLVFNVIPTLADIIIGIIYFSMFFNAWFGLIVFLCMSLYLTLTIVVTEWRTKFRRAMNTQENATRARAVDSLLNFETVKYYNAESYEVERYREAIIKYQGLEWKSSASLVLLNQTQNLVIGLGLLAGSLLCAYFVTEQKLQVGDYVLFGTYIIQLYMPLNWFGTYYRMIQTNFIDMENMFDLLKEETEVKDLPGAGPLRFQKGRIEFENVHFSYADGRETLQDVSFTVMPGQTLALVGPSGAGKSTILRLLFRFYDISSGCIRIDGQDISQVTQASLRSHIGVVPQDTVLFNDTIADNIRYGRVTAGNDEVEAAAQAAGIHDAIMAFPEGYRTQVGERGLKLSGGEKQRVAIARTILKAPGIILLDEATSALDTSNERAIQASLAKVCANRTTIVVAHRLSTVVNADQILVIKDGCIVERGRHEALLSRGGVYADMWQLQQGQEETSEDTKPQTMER

[19] = target: Potassium voltage-gated channel subfamily KQT member 2 (Rattus norvegicus, UniProt O88943, W236L); test: KCNQ2 channel potentiators, dose response, mechanism study for KCNQ2 potentiator project, cell-based, automated electrophysiology (AID 2603); format: functional
Potassium voltage-gated channel subfamily KQT member 2, sequence (O88943 whole entry W236L): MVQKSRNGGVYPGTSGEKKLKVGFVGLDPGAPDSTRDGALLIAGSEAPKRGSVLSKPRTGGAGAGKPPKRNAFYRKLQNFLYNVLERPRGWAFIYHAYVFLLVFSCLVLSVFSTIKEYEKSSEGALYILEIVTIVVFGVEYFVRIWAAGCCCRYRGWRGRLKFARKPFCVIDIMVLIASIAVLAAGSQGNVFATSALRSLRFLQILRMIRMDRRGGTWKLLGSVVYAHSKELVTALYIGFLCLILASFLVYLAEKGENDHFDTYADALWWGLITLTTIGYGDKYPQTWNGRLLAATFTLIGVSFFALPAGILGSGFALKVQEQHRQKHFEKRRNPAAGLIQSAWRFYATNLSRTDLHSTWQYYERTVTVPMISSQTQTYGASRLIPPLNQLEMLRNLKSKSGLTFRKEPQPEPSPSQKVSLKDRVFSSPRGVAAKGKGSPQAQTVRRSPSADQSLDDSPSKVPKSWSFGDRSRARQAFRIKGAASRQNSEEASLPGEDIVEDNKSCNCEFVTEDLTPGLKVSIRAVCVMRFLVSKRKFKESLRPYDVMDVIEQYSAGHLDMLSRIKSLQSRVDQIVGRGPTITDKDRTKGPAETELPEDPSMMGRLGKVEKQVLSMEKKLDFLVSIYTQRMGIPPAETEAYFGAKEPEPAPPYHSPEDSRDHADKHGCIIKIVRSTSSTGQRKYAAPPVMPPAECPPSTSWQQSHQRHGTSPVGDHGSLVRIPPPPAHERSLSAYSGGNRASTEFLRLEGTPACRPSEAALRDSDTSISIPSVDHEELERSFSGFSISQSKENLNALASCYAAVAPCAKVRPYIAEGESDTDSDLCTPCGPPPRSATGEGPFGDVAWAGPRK

[20] = HepG2 cell cytotoxicity, dose response, cytotoxicity control for Shn3 inhibitor project, CellTiter-Glo, cherry-picked (AID 624134); format: functional, cell-based
[21] = target: T7, Bcl-2-related protein A1 (Mus musculus, UniProt Q07440); format: functional;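 also: confirmatory dose–response counterscreen on Bfl-1, used to check hits from a UBC13 polyubiquitin inhibitor campaign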
T7 sequence (Q07440 whole entry): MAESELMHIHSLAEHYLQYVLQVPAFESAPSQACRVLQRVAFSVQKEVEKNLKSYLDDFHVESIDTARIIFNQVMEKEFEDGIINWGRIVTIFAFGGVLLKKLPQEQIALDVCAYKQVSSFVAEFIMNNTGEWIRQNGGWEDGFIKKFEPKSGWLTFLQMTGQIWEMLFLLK

[22] = target: Genome polyprotein (dengue virus type 2, UniProt P29990); test: Dengue-2 NS5 methyltransferase inhibitors, primary screen, biochemical, confirmation dose response (AID 588689); format: functional
Genome polyprotein, sequence (P29990 2492-3391 limits assumed): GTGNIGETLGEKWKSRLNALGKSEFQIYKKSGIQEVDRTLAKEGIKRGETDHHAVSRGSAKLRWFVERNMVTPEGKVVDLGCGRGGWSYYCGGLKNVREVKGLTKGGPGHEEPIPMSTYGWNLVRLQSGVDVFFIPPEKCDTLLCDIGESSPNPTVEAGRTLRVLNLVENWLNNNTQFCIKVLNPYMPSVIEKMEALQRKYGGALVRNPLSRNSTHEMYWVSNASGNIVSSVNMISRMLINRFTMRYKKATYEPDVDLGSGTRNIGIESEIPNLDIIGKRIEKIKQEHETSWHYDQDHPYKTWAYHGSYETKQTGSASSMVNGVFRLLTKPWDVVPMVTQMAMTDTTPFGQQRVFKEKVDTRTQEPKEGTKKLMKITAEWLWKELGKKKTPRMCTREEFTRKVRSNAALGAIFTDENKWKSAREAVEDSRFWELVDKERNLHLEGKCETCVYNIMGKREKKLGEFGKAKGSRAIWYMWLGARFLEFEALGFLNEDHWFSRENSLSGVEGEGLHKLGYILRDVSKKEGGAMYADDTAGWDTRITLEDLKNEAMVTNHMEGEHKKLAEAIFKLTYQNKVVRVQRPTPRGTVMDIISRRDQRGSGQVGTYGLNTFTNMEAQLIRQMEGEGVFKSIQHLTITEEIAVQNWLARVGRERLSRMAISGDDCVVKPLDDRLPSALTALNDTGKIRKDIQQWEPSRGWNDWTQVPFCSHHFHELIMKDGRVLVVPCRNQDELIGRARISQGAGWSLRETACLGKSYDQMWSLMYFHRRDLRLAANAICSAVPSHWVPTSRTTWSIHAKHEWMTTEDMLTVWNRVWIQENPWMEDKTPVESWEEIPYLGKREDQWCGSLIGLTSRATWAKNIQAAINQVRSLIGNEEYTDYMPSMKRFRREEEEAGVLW

[23] = cytotoxicity toward NIH3T3 fibroblasts, dose response, counter-screen, cell-based, ATP luminescence, mouse fibroblasts (AID 2010); format: functional;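 also: cells exposed to compound for about 90 hours before reading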
[24] = Luminescence Cell-Based Dose Retest to Confirm Inhibitors of Cancer Stem Cells. [Related pubchem assays (depositor defined):AID2717, AID2721]; format: functional; details: Homo sapiens
[25] = target: T8, Mannose-6-phosphate isomerase (Homo sapiens, UniProt P34949); test: inhibitors of human PMI, primary screen, biochemical, fluorescence intensity, coupled assay (AID 1209)
T8 sequence (P34949 whole entry): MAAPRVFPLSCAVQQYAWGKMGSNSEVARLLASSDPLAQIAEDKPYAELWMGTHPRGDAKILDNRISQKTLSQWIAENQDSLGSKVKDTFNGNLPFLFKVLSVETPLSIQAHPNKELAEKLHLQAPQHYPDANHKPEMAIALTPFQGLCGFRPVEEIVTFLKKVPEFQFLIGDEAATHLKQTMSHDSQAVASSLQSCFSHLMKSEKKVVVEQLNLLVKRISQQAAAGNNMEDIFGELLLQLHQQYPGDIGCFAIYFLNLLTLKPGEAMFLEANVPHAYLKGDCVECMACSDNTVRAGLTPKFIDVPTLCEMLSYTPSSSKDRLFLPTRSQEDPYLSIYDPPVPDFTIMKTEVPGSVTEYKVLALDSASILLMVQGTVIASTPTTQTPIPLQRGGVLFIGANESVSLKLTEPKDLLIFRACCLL

[26] = inhibitors of intracellular T. cruzi replication, confirmation, NIH3T3 host cells, beta-gal luminescence (AID 2044); format: functional, cell-based;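 also: intracellular parasites grown in NIH/3T3 mouse fibroblasts as host cells; luminescent beta-galactosidase reporter signal from transgenic T. cruzi replicating inside host cells; inhibitors lower the luminescence signal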
[27] = test system: INS1; test: beta cell apoptosis inhibitors, cytokine rescue, dose response, luminescence, retest (AID 449756); format: functional, cell-based; details: Rattus norvegicus;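 also: cell death triggered by IL-1 beta plus TNF-alpha plus IFN-gamma mixture; protective hits raise ATP signal compared with cytokine alone wells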
[28] = target: Cytochrome P450 2C19 (Homo sapiens, UniProt P33261); test: qHTS Assay for Inhibitors and Substrates of Cytochrome P450 2C19. [Related pubchem assays: 410 ]; format: ADME; details: read-out: Potency
Cytochrome P450 2C19, sequence (P33261 whole entry): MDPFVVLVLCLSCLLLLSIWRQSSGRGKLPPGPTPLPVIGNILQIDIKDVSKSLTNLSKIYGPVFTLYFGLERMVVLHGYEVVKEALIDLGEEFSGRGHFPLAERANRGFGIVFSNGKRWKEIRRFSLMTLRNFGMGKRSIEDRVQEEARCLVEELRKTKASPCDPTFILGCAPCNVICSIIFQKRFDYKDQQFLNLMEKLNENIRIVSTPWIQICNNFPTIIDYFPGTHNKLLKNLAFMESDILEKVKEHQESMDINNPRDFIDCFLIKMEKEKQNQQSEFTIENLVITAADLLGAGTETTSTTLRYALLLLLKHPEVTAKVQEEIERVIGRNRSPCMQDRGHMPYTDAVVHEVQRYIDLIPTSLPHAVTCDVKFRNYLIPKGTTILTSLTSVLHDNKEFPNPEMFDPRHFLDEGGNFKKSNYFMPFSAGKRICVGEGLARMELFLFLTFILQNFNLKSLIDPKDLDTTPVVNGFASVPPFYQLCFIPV

[29] = target: Cytochrome P450 3A4 (Homo sapiens, UniProt P08684); details: Potency;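 also: confirmatory qHTS run detecting inhibitors and substrates of CYP3A4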
[30] = cells

## O=C(O)/C=C/C(=O)Nc1ccc(-n2nccc2C(F)(F)F)cc1
[1]
  IC50: > 100 µM (active)

## CCCCN(CCCC)S(=O)(=O)c1ccc(NC(=O)Cc2cccs2)cc1
[2]
  IC50: > 100 µM (active)
[3]
  IC50: 7.14 µM (active)
[4]
  IC50: 1.05 µM (not active)
[5]
  IC50: 18.8 µM (active)

## Cc1ccc[n+](CC(=O)c2ccc(Br)cc2)c1C
[6]
  IC50: 13.8 µM (active)
[7]
  EC50: 6.77 µM (active)

## O=[N+]([O-])c1ccccc1-c1nc(-c2ccccc2)c(-c2ccccc2)[nH]1
[8]
  IC50: > 17 µM (not active)

## CCN1CC=C(c2c[nH]c3ccccc23)CC1
[9]
  EC50: > 50 µM (not active)

## CCCc1nnc(NC(=O)c2nc(S(=O)(=O)Cc3cccc(C)c3)ncc2Cl)s1
[10]
  AC50: 10 µM (active)
[11]
  AC50: 2.55 µM (active)
[12]
  IC50: 12.3 µM (active)
[13]
  IC50: 3.16 µM (active)
[6]
  IC50: 3.9 µM (active)
[14]
  IC50: > 20 µM (inactive)
[15]
  IC50: 5.71 µM (active)
[16]
  EC50: > 380 µM (inactive)
[17]
  CC50: > 40 µM (active)
[18]
  EC50: 60.6 µM (active)
[19]
  EC50: 2.89 µM (active)
[20]
  AC50: > 70 µM (inactive)
[21]
  IC50: > 20 µM (inactive)
[22]
  IC50: > 100 µM (active)

## CC1=[N+](C)c2ccc3ccccc3c2C1(C)C
[23]
  EC50: > 60 µM (not active)
[24]
  AC50: 27.4 µM (active)
[25]
  IC50: > 50 µM (not active)
[26]
  EC50: 2.83 µM (active)
[27]
  AC50: 6.8 µM (active)

## O=c1cc(-c2ccccc2O)oc2c1ccc1ccccc12
[28]
  AC50: 0.251 µM (inconclusive)
[29]
  AC50: 15.8 µM (inconclusive)

## O=C(CCC1CCCN(Cc2ccc3c(c2)OCCO3)C1)NCc1ccc(F)c(F)c1 (stereo not drawn)
[30]
  EC50: 0.033 µM (active)
[23]
  EC50: > 60 µM (not active)
[26]
  EC50: < 0.1 µM (active)
